ChEMBL document CHEMBL4043147, “9,19-Cycloartenol glycoside G3 from Cimicifuga simplex regulates immune responses by modulating Th17/Treg ratio” (Bioorg Med Chem, 2017)
Active and inactive are the calls of the source. No cut-off for these calls is given here.

Legend:
Mus musculus [1] = experiment: Anti-inflammatory activity in IL-23 induced mouse psoriasis-like skin inflammation model assessed as reduction in IL-4 mRNA levels at 2 to 10 uM applied topically starting 1 day prior to IL-23 induction and continuing every other day for 14 days measured after 24 hrs post last dose by real-time PCR analysis; type: functional
Mus musculus [2] = species on record: Mus musculus; experiment: Inhibition of […]/TYK2 in C57BL/6 mouse CD4-positive T cell assessed as reduction in IL-12-induced STAT1 phosphorylation at 1 to 10 uM pretreated for 1 hr followed by IL-12 addition after 30 mins by Western blot analysis
[3] = Inhibition of C57BL/6 mouse CD4-positive T cell differentiation at 12.5 uM relative to control; type: functional; conditions: C57BL/6, CD4-positive T cell
CD4-positive T cell [4] = experiment: Inhibition of C57BL/6 mouse CD4-positive T cell differentiation assessed as decrease in RORgammat mRNA level 0.1 to 10 uM by real-time PCR analysis; type: functional, cell-based
[5] = Inhibition of C57BL/6 mouse CD4-positive T cell differentiation at 50 uM relative to control; type: functional; conditions: C57BL/6, CD4-positive T cell
Splenocyte = experiment: Cytotoxicity against mouse splenocytes after 48 hrs by MTT assay; type: cell-based
Mus musculus [6] = experiment: Anti-inflammatory activity in IL-23 induced mouse psoriasis-like skin inflammation model assessed as reduction in IFN-gamma mRNA levels at 2 to 10 uM applied topically starting 1 day prior to IL-23 induction and continuing every other day for 14 days measured after 24 hrs post last dose by real-time PCR analysis; type: functional
Mus musculus [7] = experiment: Anti-inflammatory activity in IL-23 induced mouse psoriasis-like skin inflammation model assessed as reduction in epidermal hyperplasia by measuring acanthosis at 2 to 10 uM applied topically starting 1 day prior to IL-23 induction and continuing every other day for 14 days measured after 24 hrs post last dose by hematoxylin and eosin staining based assay; type: functional
Mus musculus [8] = experiment: Anti-inflammatory activity in IL-23 induced mouse psoriasis-like skin inflammation model assessed as reduction in COX2 mRNA levels at 2 to 10 uM applied topically starting 1 day prior to IL-23 induction and continuing every other day for 14 days measured after 24 hrs post last dose by real-time PCR analysis; type: functional
Mus musculus [9] = experiment: Anti-inflammatory activity in IL-23 induced mouse psoriasis-like skin inflammation model assessed as reduction in IL-1alpha mRNA levels at 2 to 10 uM applied topically starting 1 day prior to IL-23 induction and continuing every other day for 14 days measured after 24 hrs post last dose by real-time PCR analysis; type: functional
CD4-positive T cell [10] = experiment: Inhibition of C57BL/6 mouse CD4-positive T cell differentiation assessed as decrease in GATA-3 mRNA level 0.1 to 10 uM by real-time PCR analysis; type: functional, cell-based
[11] = molecular target: Tyrosine-protein kinase JAK1/JAK2 (Mus musculus) (UniProt P52332+Q62120); experiment: Inhibition of JAK1/JAK2 in C57BL/6 mouse CD4-positive T cell assessed as reduction in IFNgamma-induced STAT1 phosphorylation at 1 to 10 uM pretreated for 1 hr followed by IFNgamma addition after 15 mins by Western blot analysis
Tyrosine-protein kinase JAK1/JAK2 (Mus musculus), sequence (P52332 whole entry, looked up): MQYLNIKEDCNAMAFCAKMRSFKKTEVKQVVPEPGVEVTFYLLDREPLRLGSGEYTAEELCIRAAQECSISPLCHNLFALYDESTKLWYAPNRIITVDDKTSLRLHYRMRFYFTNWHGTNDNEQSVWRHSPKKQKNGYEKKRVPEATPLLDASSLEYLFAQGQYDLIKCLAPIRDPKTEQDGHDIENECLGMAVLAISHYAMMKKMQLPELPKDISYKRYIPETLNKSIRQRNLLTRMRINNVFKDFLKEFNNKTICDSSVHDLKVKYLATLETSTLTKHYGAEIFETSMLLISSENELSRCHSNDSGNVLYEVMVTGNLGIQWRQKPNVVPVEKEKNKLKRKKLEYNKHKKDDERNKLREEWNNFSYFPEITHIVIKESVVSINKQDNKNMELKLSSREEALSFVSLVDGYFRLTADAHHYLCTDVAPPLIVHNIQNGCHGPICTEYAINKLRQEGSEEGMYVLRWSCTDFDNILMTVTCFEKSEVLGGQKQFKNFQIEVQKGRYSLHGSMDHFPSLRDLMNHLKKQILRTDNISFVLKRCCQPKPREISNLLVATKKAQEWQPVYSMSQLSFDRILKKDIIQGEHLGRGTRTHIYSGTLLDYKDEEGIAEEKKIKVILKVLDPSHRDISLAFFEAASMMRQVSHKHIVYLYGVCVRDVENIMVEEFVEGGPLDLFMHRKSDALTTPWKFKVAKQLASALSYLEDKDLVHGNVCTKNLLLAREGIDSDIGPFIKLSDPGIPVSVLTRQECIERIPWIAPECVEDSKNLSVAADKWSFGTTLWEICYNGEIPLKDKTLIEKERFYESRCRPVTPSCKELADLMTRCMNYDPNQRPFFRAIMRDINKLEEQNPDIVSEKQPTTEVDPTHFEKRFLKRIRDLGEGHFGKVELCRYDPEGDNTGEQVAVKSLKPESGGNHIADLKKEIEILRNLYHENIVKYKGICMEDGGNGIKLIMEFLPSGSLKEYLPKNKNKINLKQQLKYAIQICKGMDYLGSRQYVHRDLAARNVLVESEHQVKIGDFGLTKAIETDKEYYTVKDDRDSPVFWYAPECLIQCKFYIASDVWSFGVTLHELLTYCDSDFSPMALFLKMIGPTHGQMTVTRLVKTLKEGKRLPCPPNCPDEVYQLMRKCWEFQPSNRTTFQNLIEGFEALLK
Tyrosine-protein kinase JAK1/JAK2 (Mus musculus), sequence (Q62120 whole entry, looked up): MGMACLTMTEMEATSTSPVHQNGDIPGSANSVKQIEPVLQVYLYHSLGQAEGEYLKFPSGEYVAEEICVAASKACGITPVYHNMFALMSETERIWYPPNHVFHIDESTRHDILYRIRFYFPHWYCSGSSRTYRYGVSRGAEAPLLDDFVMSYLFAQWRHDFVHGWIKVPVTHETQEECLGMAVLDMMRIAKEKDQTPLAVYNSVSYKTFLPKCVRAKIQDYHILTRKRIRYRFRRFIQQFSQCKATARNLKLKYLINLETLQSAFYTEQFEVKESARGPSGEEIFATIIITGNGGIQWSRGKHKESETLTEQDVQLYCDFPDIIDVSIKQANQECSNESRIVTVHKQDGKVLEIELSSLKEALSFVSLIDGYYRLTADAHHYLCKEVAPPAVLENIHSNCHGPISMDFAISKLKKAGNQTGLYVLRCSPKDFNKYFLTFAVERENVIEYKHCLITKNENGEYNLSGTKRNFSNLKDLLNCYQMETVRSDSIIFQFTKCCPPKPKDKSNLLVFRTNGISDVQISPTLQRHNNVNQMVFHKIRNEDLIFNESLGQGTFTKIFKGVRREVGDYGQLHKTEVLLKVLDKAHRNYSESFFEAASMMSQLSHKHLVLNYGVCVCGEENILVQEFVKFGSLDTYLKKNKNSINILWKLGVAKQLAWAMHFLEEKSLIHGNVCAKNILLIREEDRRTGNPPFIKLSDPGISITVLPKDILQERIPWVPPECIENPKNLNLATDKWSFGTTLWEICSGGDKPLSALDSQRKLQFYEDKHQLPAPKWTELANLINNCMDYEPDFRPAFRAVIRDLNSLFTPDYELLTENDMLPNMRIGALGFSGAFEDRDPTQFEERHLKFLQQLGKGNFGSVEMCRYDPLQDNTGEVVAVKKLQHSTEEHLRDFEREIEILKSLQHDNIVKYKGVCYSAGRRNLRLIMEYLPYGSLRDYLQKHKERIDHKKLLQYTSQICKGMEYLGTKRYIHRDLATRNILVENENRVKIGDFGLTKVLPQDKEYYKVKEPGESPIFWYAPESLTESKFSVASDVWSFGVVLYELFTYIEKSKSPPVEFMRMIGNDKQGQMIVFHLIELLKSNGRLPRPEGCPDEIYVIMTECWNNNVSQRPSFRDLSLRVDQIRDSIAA

Mus musculus [12] = experiment: Anti-inflammatory activity in IL-23 induced mouse psoriasis-like skin inflammation model assessed as reduction in CXCL1 mRNA levels at 2 to 10 uM applied topically starting 1 day prior to IL-23 induction and continuing every other day for 14 days measured after 24 hrs post last dose by real-time PCR analysis; type: functional
Mus musculus [13] = experiment: Anti-inflammatory activity in IL-23 induced mouse psoriasis-like skin inflammation model assessed as reduction in IL-1beta mRNA levels at 2 to 10 uM applied topically starting 1 day prior to IL-23 induction and continuing every other day for 14 days measured after 24 hrs post last dose by real-time PCR analysis; type: functional
Mus musculus [14] = experiment: Anti-inflammatory activity in IL-23 induced mouse psoriasis-like skin inflammation model assessed as reduction in IL-17A mRNA levels at 2 to 10 uM applied topically starting 1 day prior to IL-23 induction and continuing every other day for 14 days measured after 24 hrs post last dose by real-time PCR analysis; type: functional
CD4-positive T cell [15] = experiment: Inhibition of C57BL/6 mouse CD4-positive T cell differentiation assessed as decrease in FoxP3 mRNA level 0.1 to 10 uM by real-time PCR analysis; type: functional, cell-based
CD4-positive T cell [16] = experiment: Reduction in FoxP3/IL-10 expression in human PBMC derived allogeneic CD4-positive T cells co-cultured with […] CD14 positive monocyte derived dendritic cells at 10 uM by flow cytometric analysis; type: functional, cell-based
Mus musculus [17] = experiment: Anti-inflammatory activity in IL-23 induced mouse psoriasis-like skin inflammation model assessed as reduction in CCL20 mRNA levels at 2 to 10 uM applied topically starting 1 day prior to IL-23 induction and continuing every other day for 14 days measured after 24 hrs post last dose by real-time PCR analysis; type: functional
CD4-positive T cell [18] = experiment: Reduction in RORgammat/IL-17 expression in human PBMC derived allogeneic CD4-positive T cells co-cultured with […] CD14 positive monocyte derived dendritic cells at 10 uM by flow cytometric analysis; type: functional, cell-based
Mus musculus [19] = experiment: Anti-inflammatory activity in IL-23 induced mouse psoriasis-like skin inflammation model assessed as reduction in dermal inflammatory infiltrates at 2 to 10 uM applied topically starting 1 day prior to IL-23 induction and continuing every other day for 14 days measured after 24 hrs post last dose by hematoxylin and eosin staining based assay; type: functional
Treg cell [20] = experiment: Reduction in IL-10 production in C57BL/6 mouse Treg cells at 10 uM by ELISA; type: functional, cell-based
[21] = Inhibition of C57BL/6 mouse CD4-positive T cell differentiation at 25 uM relative to control; type: functional; conditions: C57BL/6, CD4-positive T cell
CD4-positive T cell [22] = experiment: Reduction in ratio of RORgammat/IL-17 expression to FoxP3/IL-10 expression in human PBMC derived allogeneic CD4-positive T cells co-cultured with […] CD14 positive monocyte derived dendritic cells at 10 uM by flow cytometric analysis; type: functional, cell-based
Th17 = experiment: Reduction in IL-17A production in C57BL/6 mouse Th17 cells at 10 uM by ELISA; type: functional, cell-based
Treg cell [23] = experiment: Increase in IL-10 mRNA level in C57BL/6 mouse Treg cells by real-time PCR analysis; type: functional, cell-based
[24] = Inhibition of C57BL/6 mouse CD4-positive T cell differentiation; type: functional, cell-based; conditions: C57BL/6, CD4-positive T cell
Mus musculus [25] = experiment: Anti-inflammatory activity in IL-23 induced mouse psoriasis-like skin inflammation model assessed as reduction in IL-10 mRNA levels at 2 to 10 uM applied topically starting 1 day prior to IL-23 induction and continuing every other day for 14 days measured after 24 hrs post last dose by real-time PCR analysis; type: functional
Th1 = experiment: Reduction in IFN-gamma production in C57BL/6 mouse Th1 cells at 10 uM by ELISA; type: functional, cell-based
Mus musculus [26] = experiment: Anti-inflammatory activity in IL-23 induced mouse psoriasis-like skin inflammation model assessed as reduction in TNF-alpha mRNA levels at 2 to 10 uM applied topically starting 1 day prior to IL-23 induction and continuing every other day for 14 days measured after 24 hrs post last dose by real-time PCR analysis; type: functional
Treg cell [27] = experiment: Increase in IL-10 production in C57BL/6 mouse Treg cells by ELISA; type: functional, cell-based

SMILES: CC(=O)O[C@@H]1C[C@@]23C[C@@]24CC[C@H](O[C@@H]2O[C@H](CO)[C@H](O)[C@H](O)[C@H]2O)C(C)(C)[C@@H]4CC[C@H]3[C@]2(C)C[C@]3(O)O[C@H](C(=O)[C@@H]4OC4(C)C)[C@@H](C)[C@@H]3[C@@]12C
- Activity (Mus musculus [1]): Active
- inhibition (Mus musculus [2]): Active
- inhibition at 12.5 µM [3]: 59.6%
- inhibition (CD4-positive T cell [4]): Active
- inhibition at 50 µM [5]: 98.3%
- CC50 (Splenocyte): 88.8 µM
- Activity (Mus musculus [6]): Active
- Activity (Mus musculus [7]): Active
- Activity (Mus musculus [8]): Active
- Activity (Mus musculus [9]): Active
- inhibition (CD4-positive T cell [10]): Active
- inhibition [11]: Active
- Activity (Mus musculus [12]): Active
- Activity (Mus musculus [13]): Active
- Activity (Mus musculus [14]): Active
- inhibition (CD4-positive T cell [15]): inactive
- Activity (CD4-positive T cell [16]): Active
- Activity (Mus musculus [17]): Active
- Activity (CD4-positive T cell [18]): Active
- Activity (Mus musculus [19]): Active
- Activity (Treg cell [20]): Active
- inhibition at 25 µM [21]: 93.6%
- Activity (CD4-positive T cell [22]): Active
- Activity (Th17): Active
- Activity (Treg cell [23]): Dose-dependent effect
- IC50 [24]: 8.69 µM
- Activity (Mus musculus [25]): inactive
- Activity (Th1): Active
- Activity (Mus musculus [26]): Active
- Activity (Treg cell [27]): Dose-dependent effect
